The record followed here is patent US4757084A, “2,5-diaryl tetrahydrothiophenes and analogs thereof as PAF-antagonists” (Merck & Co., Inc., priority 1985, dated 1988).

For experiment [1], the target named is PAF specific receptor binding site on rabbit platelet plasma membranes (Oryctolagus cuniculus, UniProt G1TEI7). In words: Inhibition of 3H-PAF binding to rabbit platelet plasma membrane. The following applies: for inhibition at 0.03 µM: .03 μM; for inhibition at 0.1 µM: .1 μM; for inhibition at 0.3 µM: .3 μM. Here is the method: A. In Vitro Assay: In vitro, they inhibit PAF-induced functions in both the cellular and tissue levels by disturbing the PAF binding to its specific receptor site. The ability of a compound of formula (I) to inhibit the PAF binding to its specific receptor binding site on rabbit platelet plasma membranes was measured by an assay recently developed by us.
Sequence of PAF specific receptor binding site on rabbit platelet plasma membranes (G1TEI7 1-342): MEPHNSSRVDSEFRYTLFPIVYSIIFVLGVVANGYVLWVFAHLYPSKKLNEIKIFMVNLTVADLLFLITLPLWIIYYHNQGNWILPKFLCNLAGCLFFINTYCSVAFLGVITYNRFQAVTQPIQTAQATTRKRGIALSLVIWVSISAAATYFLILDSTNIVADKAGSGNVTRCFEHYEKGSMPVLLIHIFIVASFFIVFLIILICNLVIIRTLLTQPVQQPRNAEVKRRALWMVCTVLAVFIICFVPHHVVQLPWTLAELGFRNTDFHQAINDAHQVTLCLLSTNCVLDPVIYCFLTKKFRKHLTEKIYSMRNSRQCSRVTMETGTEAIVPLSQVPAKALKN
The inhibition of H^3 -PAF binding to the rabbit platelet plasma membrane by a PAF-antagonist of Formula (I) was determined by a method employing isotopic labeling and filtration techniques. Generally, a series of Tris-buffered solutions of the selected antagonist at predetermined concentrations were prepared. Each of these solutions contains 1 pmole of ^3 H-PAF, a known amount of the test antagonist, and a sufficient amount of the pH 7.5 Tris-buffer solution (10 mM Tris, 0.25% bovine serum albumin, and 150 mM NaCl per ml water) to make the final volume of 1 ml. After adding into a set of test tubes each with 100 μg of the platelet plasma membrane suspension (S. B. Hwang, et al., Biochemistry, 1983) and one of the Tris-buffer solutions described above, the resulting mixture in each test tube was incubated at 0° C. for about one hour or until the reaction was complete. Two control samples, one of which (C1)contains all the ingredients described above except the antagonist and the other (C2) contains C1 plus a 1000-fold excess of unlabeled PAF, were also prepared and incubated simultaneously with the test samples. After the incubation was completed, the contents of each test tube were filtered under vacuo through a Whatman GF/C fiberglass filter and the residue washed rapidly several times with a total of 20 ml cold (0°-5° C.) Tris-buffer solution. Each washed residue was then suspended in 10 ml scintillation solution (Aquasol 2, New England Nuclear, Connecticut) and the radioactivity was counted in a Packard Tri-Carb 460CD Liguid Scintillation System. Defining the counts from a test sample as "Total binding with antagonist"; the counts from the control sample C1, as "Total binding C1 "; and the counts from the control sample C2 as "nonspecific binding C2 ", the percent inhibition of each test antagonist can be determined by the following equation: [formula]

In experiment [2] the test system is PAF-induced symptoms (increased vascular permeability, increased degranulation). The experiment is described as follows: Oral activity in inhibiting PAF-induced symptoms in rats. The format is in vivo. To be noted: rat. From the text: B. In vivo Assay: Protocol for Assay of Oral Activity of PAF-antagonists in inhibiting PAF-induced symptoms including decreased arterial blood flow, increased vascular permeability and increased degranulation in rats
Animals: Female, Wiston rats, 190-220 g
2. Weigh the rats the morning after fasting.
3. Suspend a test compound in 0.5% methylcellulose with 12 ounce hand homogenizer or a sonicator if necessary to yield a fine suspension. […]
4. One hour after dosing, anesthetize the rat with sodium Nembutal (i.p.).
5. One and a quarter hours after dosing, cannulate surgically the left femoral vein and artery of the rat.
6. One and a half hours after dosing, infuse through cannulated vein 0.5 nannomoles (n moles) per 200 g body weight of the rat. Take blood samples from the cannulated femoral artery at 1.5, 3, 5, 8, 11, 15, 20 25 and 30 minute intervals. After the beginning of the PAF infusion as well as just before the PAF infusion, measure the following three parameters for each blood sample:
(§1) (a) the arterial blood flow rate: determined by measuring the time to fill a pre-calibrated 14 μl capillary tube;
(b) the vascular permeability: measured by calculating the increased hematocrit which results from loss of plasma from the circulation to extra-vascular spaces.
(c) the circulatory degranulation: determined by assaying the increased plasma level of N-acetylglucosaminidase, a marker lysosomal enzyme.
7. Determine the percent change in each parameter of a blood sample at each post-PAF interval including the 30 minute interval, relative to the pre-PAF blood values.
(§2) 8. Calculate the percent inhibition by the formula: [formula]

The subject of experiment [3] is soluble immune complex induced effects. The experiment is described as follows: Method B: oral activity in inhibiting soluble immune complex induced effects in rats. The format is in vivo. The following applies: rat, 50 mg/kg. Here is the method: Method B: Protocol for Assay of Oral Activity of PAF antagonists in inhibiting soluble immune complex induced effects including decreased arterial blood flow, increased vascular permeability and increased degranulation in rats.
Animals: Female, wistar rats, 190-22-g
2. Weigh the rats the morning after fasting
3. Suspend a test compound in 0.5% methylcellulose with 12 ounce hand homogenizer to yield fine suspension. Administer orally each of the rats with 2 ml of suspension such that the rat received a predetermined amount of the compound varying between 2 and 50 mg compound per kg bodyweight of the rat.
4. Soluble immune complexes (I.C.) were prepared by mixing 2.4 mg human serum albumin (HSA) with 51 mg of the Igby fraction from rabbit anti-HSA antiserum in a final volume of 3.4 ml and incubating at 37° C. for 1 hour. This ratio of HSA to antibody was previously determined to be in slight antigen excess of equivalence and to result in soluble I.C. Following 37° C. incubation, the I.C. was centrifuged at 10,000 xg, 5 minute and the resulting superinstant containing the soluble I.C. stored on ice.
5. Two and one-half hours after dosing, anesthetize the rat with sodium Nembutal (i.P.)
6. Two and three-quarters hours after dosing, cannulate surgically the left femoral vein and artery of the rat. Take a blood sample from the cannulated femoral artery before the I.C. infusion and 1.5, 3, 5, 8, 11, 15, 20, 25 and 30 minutes after the I.C. infusion. Measure the following three parameter for each blood sample:
as §1
(b) the vascular permeability: measured by calculating the increased hematocit which results from loss of plasma from the circulation to extra-vascular spaces.
(c) the circulatory degranulation: determined by assaying the increased plasma level of N-acetylglucosaminidase, a marker lysopomal enzyme.
as §2

Molecules are shown by their SMILES.

On to `COc1ccc([C@H]2S[C@@H](c3ccc(OC)c(OC)c3)[C@H](C)[C@H]2C)cc1OC` (relative stereo), for which, in experiment [1], the inhibition (usually how much of the control response was suppressed) at 1 µM worked out at 53% and at 5 µM the inhibition was 82%.
In experiment [1], `COc1ccc([C@H]2S[C@H](c3ccc(OC)c(OC)c3)[C@H](C)[C@H]2C)cc1OC` (relative stereo) gave an inhibition at 1 µM of 82%, an inhibition at 0.03 µM of 30%, an inhibition at 0.1 µM of 68% and an inhibition at 0.3 µM of 43%.
The like results for `COc1ccc([C@H]2CC[C@H](c3ccc(OC)c(OC)c3)S2)cc1OC` (relative stereo) [H H 3,4-dimethoxyphenyl same as Ar trans, trans-2,5-bis-(3,4-dimethoxyphenyl)tetrahydrothiophene] were, in that order, 100%, 31%, 43% and 83%.
Turning to `COc1cc([C@H]2CC[C@H](c3cc(OC)c(OC)c(OC)c3)S2)cc(OC)c1OC` (relative stereo) [trans-2,5-bis (3,4,5-trimethoxyphenyl) tetrahydrothiophene], in experiment [1], the “PAF-antagonist activity (in words)” value is reported as “most active PAF-antagonists”, the inhibition at 1 µM came to 100%, testing at 0.03 µM gave an inhibition of 69% and testing at 0.1 µM gave an inhibition of 95%. Also, the inhibition at 0.3 µM in experiment [1] was found to be 100%. Further, in experiment [2] (1 mg/kg), the “% inhibition A (increased vascular permeability)” value was 20% and the “% inhibition B (increased degranulation)” value came out at 49%. In addition, in experiment [2] (5 mg/kg), the “% inhibition A (increased vascular permeability)” value turned out to be 58% and the “% inhibition B (increased degranulation)” value was 60%. In experiment [2] (20 mg/kg), the “% inhibition A (increased vascular permeability)” value came out at 85% and the “% inhibition B (increased degranulation)” value turned out to be 83%. In experiment [2] (40 mg/kg), the “% inhibition A (increased vascular permeability)” value turned out to be 81% and the “% inhibition B (increased degranulation)” value stood at 81%. In experiment [3], the “% inhibition of decreased arterial blood flow” value amounted to 40%, the “% inhibition of increased degranulation” value is given as 40% and the “% inhibition of increased vascular permeability” value amounted to 73%.
Take `COc1cc([C@H]2CC[C@H](c3cc(OC)c(OC)c(OC)c3)S2)cnc1OC` (relative stereo) [trans-2-(3,4,5-trimethoxyphenyl)-5-(5,6-dimethoxy-3-pyridyl)tetrahydrothiophene]: in experiment [1], the “PAF-antagonist activity (in words)” value is recorded as “most active PAF-antagonists”, the inhibition at 1 µM turned out to be 80% and the inhibition at 5 µM stood at 96%.
Turning to `COc1ccc([C@@H]2CC[C@H](c3ccc(OC)c(OC)c3)S2)cc1OC` [H H 3,4-dimethoxyphenyl same as Ar cis, cis-2,5-bis-(3,4-dimethoxyphenyl)tetrahydrothiophene], in experiment [1], the inhibition at 1 µM was 62%, the inhibition at 0.1 µM was found to be 25% and 0.3 µM produced 41% inhibition. In experiment [2] (20 mg/kg), the “% inhibition A (increased vascular permeability)” value stood at 41% and the “% inhibition B (increased degranulation)” value is listed as 35%.
